Literature values, collected in paper PMC10458698, “Characterization of the interferences of systemic azole antifungal drugs with adrenal steroid biosynthesis using H295R cells and enzyme activity assays” (Current Research in Toxicology, 2023).

Assays:
[1] = parameters: method as in Nguyen et al., 2020; conditions: ref Nguyen et al., 2020; cited from earlier work
[2] = target: T1, CYP11A1 (Homo sapiens, UniProt P05108); parameters: method as in Mast et al., 2013, Vanden Bossche et al., 1986; conditions: in words, ref Mast et al., 2013, Vanden Bossche et al., 1986; cited from earlier work
T1 construct: host or cells: V79-4 cells (Chinese hamster), transient transfection, mitochondrial fraction
T1 sequence (P05108 40-521): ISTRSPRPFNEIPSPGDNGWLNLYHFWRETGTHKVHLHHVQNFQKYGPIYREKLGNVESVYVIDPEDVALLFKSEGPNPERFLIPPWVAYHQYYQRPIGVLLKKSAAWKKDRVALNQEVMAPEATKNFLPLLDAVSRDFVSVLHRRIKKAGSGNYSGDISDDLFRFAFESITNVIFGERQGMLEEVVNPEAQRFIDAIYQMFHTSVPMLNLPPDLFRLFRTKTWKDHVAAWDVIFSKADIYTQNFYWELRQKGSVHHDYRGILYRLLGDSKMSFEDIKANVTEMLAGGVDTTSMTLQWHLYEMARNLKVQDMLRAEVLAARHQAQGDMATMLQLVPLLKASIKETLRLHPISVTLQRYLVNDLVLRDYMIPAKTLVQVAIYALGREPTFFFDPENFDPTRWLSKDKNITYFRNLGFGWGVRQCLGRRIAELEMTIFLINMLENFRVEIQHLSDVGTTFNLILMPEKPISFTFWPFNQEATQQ

| Compound | serum concentration with increased risk of pseudohyperaldosteronism [1] [ng/mL] | CYP11A1 inhibition in earlier studies [2] |
| --- | --- | --- |
| CC[C@@H]([C@H](C)O)n1ncn(-c2ccc(N3CCN(c4ccc(OC[C@@H]5CO[C@@](Cn6cncn6)(c6ccc(F)cc6F)C5)cc4)CC3)cc2)c1=O [posaconazole, Posaconazole] | > 2500 | moderate CYP11A1 inhibition |
| CCC(C)n1ncn(-c2ccc(N3CCN(c4ccc(OCC5COC(Cn6cncn6)(c6ccc(Cl)cc6Cl)O5)cc4)CC3)cc2)c1=O (stereo not drawn) [itraconazole] |  | no substantial inhibition |
